Reference: patent US20220324865A1 (Bayer Aktiengesellschaft, priority 2018, published 2022)

The compounds below were run against T1, human EP3 receptor (Homo sapiens, UniProt P43115) (assay: Cellular in vitro assay for determining EP3 receptor activity (human EP3 cell line, sulprostone-stimulated calcium luminescence)). Details: CHO cells expressing human EP3 and mitochondrial Clytin; antagonist mode, sulprostone at EC50; read-out: EP3 CHO mtCLY ANTAG IC50.
T1 construct: expressed in transfected cells; host or cells: CHO K1 (Chinese Hamster Ovary), stably co-transfected with Galpha16 and mitochondrial clytin
T1 sequence (P43115 1-390): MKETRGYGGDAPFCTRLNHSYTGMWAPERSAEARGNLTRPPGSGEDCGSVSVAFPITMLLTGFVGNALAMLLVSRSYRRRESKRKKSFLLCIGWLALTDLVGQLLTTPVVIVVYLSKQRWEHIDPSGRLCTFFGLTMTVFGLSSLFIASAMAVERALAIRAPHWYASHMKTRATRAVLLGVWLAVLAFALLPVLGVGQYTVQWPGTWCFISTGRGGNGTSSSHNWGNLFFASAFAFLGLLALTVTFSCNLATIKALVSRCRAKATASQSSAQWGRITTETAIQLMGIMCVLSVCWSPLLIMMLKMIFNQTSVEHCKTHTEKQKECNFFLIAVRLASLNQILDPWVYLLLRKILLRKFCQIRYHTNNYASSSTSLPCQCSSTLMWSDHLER
Assay type: cell-based
Summary of the method: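 CHO K1 cells stably expressing human EP3 with Gα16 and mitochondrial Clytin, loaded overnight with coelenterazine. Compounds added 10 min before sulprostone at its EC50; antagonism read immediately as reduced calcium-driven luminescence, quadruplicate points.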

Point of comparison: `Cc1ccc(-c2cn3nc(C(=O)N[C@H](C)C(C)(C)C)c(C4CC4)c3c(=O)[nH]2)cc1Cl` [6-281], IC50 2.05 nM. Against it:
- COc1ccc(C(C)NC(=O)c2nn3c(C)c(-c4ccc5ccccc5c4)[nH]c(=O)c3c2C)cn1 (centres unmarked) [Example 3-38, N-[1-(6-Methoxy-3-pyridyl)ethyl]-3,7-dimethyl-6-(2-naphthyl)-4-oxo-5H-pyrazolo[1,5-a]pyrazine-2-carboxamide] — within 1.5-fold, 1.85 nM
- Cc1ccc(-c2cn3nc(C(=O)N[C@H](C)C(C)C)c(C(C)C)c3c(=O)[nH]2)cc1C [Example 1-141, 6-(3,4-Dimethylphenyl)-N-[(2R)-3-methylbutan-2-yl]-4-oxo-3-(propan-2-yl)-4,5-dihydropyrazolo-[1,5-a]pyrazine-2-carboxamide] — within 1.5-fold, 1.7 nM
- Cc1ccc(-c2cn3nc(C(=O)NC4(c5ccc(F)cc5)CC4)cc3c(=O)[nH]2)cc1C(F)(F)F [6-26] — 2.4-fold higher, 5 nM
- Cc1cc(-c2cn3nc(C(=O)NC4(c5ccccc5)CCOCC4)c(C(F)(F)F)c3c(=O)[nH]2)ccc1Cl [6-230] — within 1.5-fold, 1.6 nM
- COC[C@@H](C)NC(=O)c1nn2cc(-c3ccc4ccccc4c3)[nH]c(=O)c2c1C(F)(F)F [6-516] — 2.1-fold higher, 4.4 nM
- O=C(N[C@H](CCO)c1ccc(F)cc1)c1cc2c(=O)[nH]c(-c3cnc4ccccc4c3)cn2n1 [6-11] — 2.3-fold higher, 4.65 nM
- Cc1ccc(-c2cn3nc(C(=O)N[C@H](C)C(C)C)c(C(F)(F)F)c3c(=O)[nH]2)cc1Cl [6-189] — 1.5-fold lower, 1.35 nM
- Cc1ccc(-c2cn3nc(C(=O)NC4(c5ccc(F)cc5)CC4)cc3c(=O)[nH]2)cc1C [6-24] — within 1.5-fold, 2.03 nM
- COc1cc(-c2cn3nc(C(=O)N[C@H](C)C4CC4)c(C4CC4)c3c(=O)[nH]2)ccc1Cl [6-483] — 2-fold lower, 1.01 nM
- Cc1cc(-c2cn3nc(C(=O)NCC(O)C(F)(F)F)c(C4CC4)c3c(=O)[nH]2)ccc1Cl (single isomer, unassigned) [6-313] — within 1.5-fold, 1.65 nM
- CCN(CCO)CC(NC(=O)c1cc2c(=O)[nH]c(-c3ccc4ccccc4c3)cn2n1)c1ccccc1 (centres unmarked) [Example 1-27, N-[2-[Ethyl(2-hydroxyethyl)amino]-1-phenylethyl]-6-(2-naphthyl)-4-oxo-5H-pyrazolo[1,5-a]-pyrazine-2-carboxamide] — within 1.5-fold, 2.25 nM
- Cc1cc(-c2cn3nc(C(=O)N[C@H](c4ccc(F)cc4)C(C)(C)O)c(C4CC4)c3c(=O)[nH]2)ccc1C(F)(F)F [6-134] — 4.2-fold higher, 8.6 nM
- Cc1ccc(-c2cn3nc(C(=O)NCC(O)C(F)(F)F)c(C4CC4)c3c(=O)[nH]2)cc1Cl (single isomer, unassigned) [6-260] — 2.5-fold lower, 0.82 nM
- Cc1ccc(-c2cn3nc(C(=O)N[C@H](CN4CC[C@H](F)C4)c4ccccc4)cc3c(=O)[nH]2)cc1F [6-643] — within 1.5-fold, 1.95 nM
- Cc1ccc(-c2cn3nc(C(=O)N[C@@H](c4ccc(F)cc4)C(F)(F)CO)cc3c(=O)[nH]2)cc1F [6-645] — 2.9-fold higher, 6 nM
- Cc1ccc2c(c1)C(NC(=O)c1nn3cc(-c4cnc5cccc(C)c5c4)[nH]c(=O)c3c1C(C)C)CC(C)(C)O2 (centres unmarked) [Example 4-84, 3-Isopropyl-6-(5-methylquinolin-3-yl)-4-oxo-N-(2,2,6-trimethyl-3,4-dihydro-2H-chromen-4-yl)-4,5-dihydropyrazolo[1,5-a]pyrazine-2-carboxamide] — 3.4-fold higher, 6.95 nM
- Cc1cc(-c2cn3nc(C(=O)NCC(C)(N)C(F)(F)F)c(C4CC4)c3c(=O)[nH]2)ccc1Cl (racemic) [6-319] — 1.8-fold lower, 1.17 nM
- Cc1cc(-c2cn3nc(C(=O)NC(C)C4CCC4)c(C(F)(F)F)c3c(=O)[nH]2)ccc1Cl (racemic) [6-222] — 1.8-fold lower, 1.11 nM
- Cc1cc(-c2cn3nc(C(=O)NC(c4ccc(F)cc4)C4(O)CC4)c(C4CC4)c3c(=O)[nH]2)ccc1F (single isomer, unassigned) [6-651] — 2-fold lower, 1 nM
- CC[C@@H](C)NC(=O)c1nn2cc(-c3cnc4cccc(C)c4c3)[nH]c(=O)c2c1C(F)(F)F [6-547] — 3.8-fold higher, 7.8 nM
- Cc1ccc(-c2cn3nc(C(=O)NCC(O)C(F)(F)F)c(C4CC4)c3c(=O)[nH]2)cc1Cl (racemic) [6-258] — 2.5-fold lower, 0.82 nM
- O=C(NCc1ccc(F)c(F)c1)c1cc2c(=O)[nH]c(-c3ccc4ccccc4c3)cn2n1 [Example 2-33, N-(3,4-Difluorbenzyl)-6-(2-naphthyl)-4-oxo-4,5-dihydropyrazolo[1,5-a]pyrazine-2-carboxamide] — within 1.5-fold, 1.5 nM
- Cc1ccc(-c2cn3nc(C(=O)N[C@@H](c4ccccc4)C(C)(C)O)cc3c(=O)[nH]2)cc1C [Example 1-54, 6-(3,4-Dimethylphenyl)-N-[(1S)-2-hydroxy-2-methyl-1-phenylpropyl]-4-oxo-4,5-dihydropyrazolo-[1,5-a]pyrazine-2-carboxamide] — 1.8-fold higher, 3.65 nM
- CC(C)(O)[C@@H](NC(=O)c1nn2cc(-c3cc(F)c(Cl)cc3F)[nH]c(=O)c2c1C1CC1)c1ccc(F)cc1 [6-584] — 3.6-fold higher, 7.4 nM
- Cc1ccc(-c2cn3nc(C(=O)N[C@@H](C)C4CC4)c(C(F)(F)F)c3c(=O)[nH]2)cc1C [6-119] — 1.9-fold lower, 1.09 nM
- N#Cc1c(C(=O)NC(CO)c2cc(Cl)cc(Cl)c2)nn2cc(-c3ccc4ccccc4c3)[nH]c(=O)c12 (centres unmarked) [Example 3-76, 3-Cyano-N-[1-(3,5-dichlorophenyl)-2-hydroxyethyl]-6-(2-naphthyl)-4-oxo-5H-pyrazolo[1,5-a]pyrazine-2-carboxamide] — 2.1-fold higher, 4.35 nM
- CC(C)(O)[C@@H](NC(=O)c1nn2cc(-c3ccc(Cl)c(C(F)F)c3)[nH]c(=O)c2c1C1CC1)c1ccc(F)cc1 [6-666] — within 1.5-fold, 1.4 nM
- Cc1cccc2ncc(-c3cn4nc(C(=O)Nc5cnn(C)c5)c(C(C)C)c4c(=O)[nH]3)cc12 [Example 4-24, N-(1-Methyl-1H-pyrazol-4-yl)-6-(5-methylquinolin-3-yl)-4-oxo-3-(propan-2-yl)-4,5-dihydropyrazolo[1,5-a]pyrazine-2-carboxamide] — 1.8-fold lower, 1.15 nM
- Cc1c(C(=O)N[C@H]2CCc3ccccc32)nn2c(C)c(-c3ccc4ccccc4c3)[nH]c(=O)c12 [Example 3-29, N-[(7S)-2,3-Dihydro-1H-inden-1-yl]-3,7-dimethyl-6-(naphthalen-2-yl)-4-oxo-4,5-dihydropyrazolo[1,5-a]pyrazine-2-carboxamide] — 2.3-fold higher, 4.65 nM
- COc1ccc(C2(NC(=O)c3cc4c(=O)[nH]c(-c5ccc6c(c5)OCCO6)cn4n3)CN(C(=O)OC(C)(C)C)C2)cc1 [6-58] — within 1.5-fold, 2.3 nM
- O=C(N[C@H](CCO)c1ccc(F)cc1)c1nn2cc(-c3ccc(Cl)c(C(F)F)c3)[nH]c(=O)c2c1C1CC1 [6-668] — 1.9-fold lower, 1.09 nM
- O=C(NCC(O)C(F)(F)F)c1nn2cc(-c3ccc4c(c3)OCCO4)[nH]c(=O)c2c1C(F)(F)F (single isomer, unassigned) [6-532] — 4.3-fold higher, 8.9 nM
- Cc1cc(-c2cn3nc(C(=O)NC(C)C4CCC4)c(C(F)(F)F)c3c(=O)[nH]2)ccc1Cl (single isomer, unassigned) [6-223] — 1.6-fold lower, 1.25 nM
- COCc1c(C(=O)N[C@H](C)c2ccc(F)cc2)nn2cc(-c3ccc4ccccc4c3)[nH]c(=O)c12 [Example 1-20, N-[(1R)-1-(4-Fluorophenyl)ethyl]-3-(methoxymethyl)-6-(naphthalen-2-yl)-4-oxo-4,5-dihydropyrazolo[1,5-a]pyrazine-2-carboxamide] — 1.9-fold lower, 1.09 nM
- Cc1ccc(-c2cn3nc(C(=O)NCC(O)C(F)(F)F)c(C4CC4)c3c(=O)[nH]2)cc1F (single isomer, unassigned; enantiomer2) [Example 1-161, 3-Cyclopropyl-6-(3-fluoro-4-methylphenyl)-4-oxo-N-(3,3,3-trifluoro-2-hydroxpropyl)-4,5-dihydropyrazolo[1,5-a]pyrazine-2-carboxamide (enantiomer2)] — 2.8-fold higher, 5.7 nM
- Cc1ccc(-c2cn3nc(C(=O)NC(C)CN4CCOCC4)c(C4CC4)c3c(=O)[nH]2)cc1C (single isomer, unassigned) [6-451] — 2.6-fold higher, 5.35 nM
- COc1ccc(CCNC(=O)c2cc3c(=O)[nH]c(-c4ccc5c(c4)OCCO5)cn3n2)cc1OC [6-77] — within 1.5-fold, 2.28 nM
- Cc1cc(-c2cn3nc(C(=O)NC(C)(C)C4CC4)c(C(F)(F)F)c3c(=O)[nH]2)ccc1Cl [6-220] — 1.7-fold lower, 1.18 nM
- Cc1ccc(-c2cn3nc(C(=O)N[C@@H](c4ccc(F)cc4)C(C)(C)O)c(C(F)(F)F)c3c(=O)[nH]2)cc1F [Example 1-147, 6-(3-Fluoro-4-methylphenyl)-N-[(15)-1-(4-fluorophenyl)-2-hydroxy-2-methylpropyl]-4-oxo-3-(trifluoromethyl)-4,5-dihydropyrazolo[1,5-a]pyrazine-2-carboxamide] — within 1.5-fold, 2.9 nM
- O=C(NCC(O)C(F)(F)F)c1nn2cc(-c3ccc(Cl)c(Cl)c3)[nH]c(=O)c2c1C1CC1 (single isomer, unassigned) [6-416] — within 1.5-fold, 2.8 nM
- Cc1ccc(-c2cn3nc(C(=O)NC4(c5ccc(F)cc5)CCN(C)C4)cc3c(=O)[nH]2)cc1C (single isomer, unassigned) [6-363] — 22-fold higher, 46 nM
- COc1ccc(C(C)NC(=O)c2cc3c(=O)[nH]c(-c4ccc(Cl)c(C)c4)cn3n2)cn1 (centres unmarked) [Example 1-107, 6-(4-Chloro-3-methylphenyl)-N-[1-(6-methoxypyridin-3-yl)ethyl]-4-oxo-4,5-dihydropyrazolo[1,5-a]-pyrazine-2-carboxamide] — 1.9-fold higher, 3.97 nM
- CN1CC(NC(=O)c2cc3c(=O)[nH]c(-c4ccc5c(c4)CCC5)cn3n2)(c2ccc(F)cc2)C1 [Example 1-96, 6-(2,3-Dihydro-1H-inden-5-yl)-N-[3-(4-fluorophenyl)-1-methylazetidin-3-yl]-4-oxo-4,5-dihydropyrazolo[1,5-a]pyrazine-2-carboxamide] — within 1.5-fold, 2.65 nM
